From patent publication US20060235013A1, “Tricyclic azole derivatives” (priority 2005, published 2006)

test system: HCT 116 cells; assay: Viability assay in HCT 116 cells (CellTiter-Glo Luminescent Cell Viability Assay); format: cell-based; conditions: HCT 116 human colon carcinoma cells, 5 days (120 h) incubation, ATP luminescence
Experimental: Viability Assay in HCT 116 Cells
A viability assay was performed using the CellTiter-Glo® Luminescent Cell Viability Assay (see Promega Corporation's Technical Bulletin No. 288, pp. 1-11 [revised February 2004] which is hereby incorporated by reference in its entirety). This assay is a homogeneous method of determining the number of viable cells in culture based on quantitation of the ATP present, an indicator of metabolically active cells. The assay is designed for use with multiwell formats, making it ideal for automated high-throughput screening (HTS), cell proliferation and cytotoxicity assays. The homogenous assay procedure involves adding a single reagent (containing luciferase, luciferan substrate, and buffer) directly to cells cultured in serum-supplemented medium. Cell washing, removal of medium and multiple pipetting steps are not required. The system detects as few as 15 cells/well in a 384-well format in 10 minutes after adding reagent and mixing.
The homogeneous “add-mix-measure” format results in cell lysis and generation of a luminescent signal proportional to the amount of ATP present. The amount of ATP is directly proportional to the number of cells present in culture. The above-referenced assay generates a “glow-type” luminescent signal, produced by the luciferase reaction, which has a half-life generally greater than five hours, depending on cell type and medium used. The extended half-life eliminates the need to use reagent injectors and provides flexibility for continuous or batch mode processing of multiple plates. The unique homogeneous format avoids errors that may be introduced by other ATP measurement methods that require multiple steps.
HCT 116 cells (human colon carcinoma, ATCC-No. CCl-247) were cultivated in RPMI 1640 medium with GlutaMAX™ I (cell culture media that contains L-Alanyl-L-Glutamine [a stabilized a form/source of L-Glutamine] from Invitrogen, Cat-No. 61870-010), 2.5% Fetal Calf Serum (FCS, Sigma Cat-No. F4135 (FBS)); 100 Units/ml penicillin/100 μg/ml streptomycin (=Pen/Strep from Invitrogen Cat. No. 15140). For the assay the cells were seeded in 384 well plates, 1000 cells per well, in the same medium. The next day the test compounds were added in various concentrations ranging from 30 μM to 0.0015 μM (10 concentrations, 1:3 diluted). After 5 days the viability assay was done according to the instructions of the manufacturer. In brief: the cell-plate was equilibrated to room temperature for approximately 30 minutes and then reagent (containing luciferase, luciferan substrate, and buffer) was added. The contents were carefully mixed for 15 minutes to induce cell lysis. After 45 minutes the luminescent signal was measured in Victor 2, (scanning multiwell spectrophotometer, Wallac).
Medium: RPMI 1640 with cell culture media containing L-Alanyl-L-Glutamine [GlutaMAX™ I (Invitrogen, Cat-No. 61870)], 5% FCS (Sigma Cat.-No. F4135), Pen/Strep (Invitrogen, Cat No. 15140).
HCT116 (ATCC-No. CCl-247): 1000 cells in 60 μl per well of 384 well plate (Greiner 781098, μClear-plate white)
After seeding incubate plates 24 h at 37° C., 5% CO2
2nd. Day: Induction (Treatment with Compounds, 10 Concentrations):
In order to achieve a final concentration of 30 μM as highest concentration 3.5 μl of 10 mM compound stock solution were added directly to 163 μl media. Then step (d) of the dilution procedure described below, was followed.
In order to achieve the second highest to the lowest concentrations, a serial dilution with dilution steps of 1:3 was followed according to the procedure (a-d) as described here below:
(a) for the second highest concentration add 10 μl of 10 mM stock solution of compound to 20 μl dimethylsulfoxide (DMSO)
(b) dilute 8×1:3 (always 10 μl to 20 μl DMSO) in this DMSO dilution row (results in 9 wells with concentrations from 3333.3 μM to 0.51 μM)
(c) dilute each concentration 1: 47.6 (3.5 μl compound dilution to 163 μl media)
(d) add 10 μl of every concentration to 60 μl media in the cell plate […]

Row | SMILES | IC50
1 | CCN1C(=O)C(C)(C)c2cc3nc(-c4n[nH]c5c4CCCC5)[nH]c3cc21 [Example 8, 5-Ethyl-7,7-dimethyl-2-(4,5,6,7-tetrahydro-1H-indazol-3-yl)-5,7-dihydro-3H-imidazo[4,5-f]indol-6-one] | 100 to 2000 nM
2 | CN1C(=O)C(C)(C)c2cc3nc(-c4n[nH]c5c4CCC5)[nH]c3cc21 [Example 2, 5,7,7-Trimethyl-2-(1,4,5,6-tetrahydro-cyclopentapyrazol-3-yl)-5,7-dihydro-3H-imidazo[4,5-f]indol-6-one] | 430 nM
3 | CCN1C(=O)C(C)(C)c2cc3nc(-c4n[nH]c5c4CSCC5)[nH]c3cc21 [Example 26, 5-Ethyl-7,7-dimethyl-2-(1,4,6,7-tetrahydro-thiopyrano[4,3-c]pyrazol-3-yl)-5,7-dihydro-3H-imidazo[4,5-f]indol-6-one] | 100 to 2000 nM
4 | CC(C)N1C(=O)C(C)(C)c2cc3nc(-c4n[nH]c5c4CSC5)[nH]c3cc21 [Example 28, 2-(4,6-Dihydro-1H-thieno[3,4-c]pyrazol-3-yl)-5-isopropyl-7,7-dimethyl-5,7-dihydro-3H-imidazo[4,5-f]indol-6-one] | 338 nM
5 | CCc1cccc(CC)c1NC(=O)N1Cc2[nH]nc(-c3nc4cc5c(cc4[nH]3)N(C(C)C)C(=O)C5(C)C)c2C1 [Example 21, 3-(5-Isopropyl-7,7-dimethyl-6-oxo-3,5,6,7-tetrahydro-imidazo[4,5-f]indol-2-yl)-4,6-dihydro-1H-pyrrolo[3,4-c]pyrazole-5-carboxylic acid (2,6-diethyl-phenyl)-amide] | 100 to 2000 nM
6 | CCN1C(=O)C(C)(C)c2cc3nc(-c4n[nH]c5c4CCC5)[nH]c3cc21 [Example 3, 5-Ethyl-7,7-dimethyl-2-(1,4,5,6-tetrahydro-cyclopentapyrazol-3-yl)-5,7-dihydro-3H-imidazo[4,5-f]indol-6-one] | 100 to 2000 nM
7 | CC1(C)C(=O)Nc2cc3[nH]c(-c4n[nH]c5c4CCC5)nc3cc21 [Example 1, 7,7-Dimethyl-2-(1,4,5,6-tetrahydro-cyclopentapyrazol-3-yl)-5,7-dihydro-3H-imidazo[4,5-f]indol-6-one] | 100 to 2000 nM
8 | CCN1C(=O)C(C)(C)c2cc3nc(-c4n[nH]c5c4CN(Cc4ccccc4)CC5)[nH]c3cc21 [Example 13, 2-(5-Benzyl-4,5,6,7-tetrahydro-1H-pyrazolo[4,3-c]pyridin-3-yl)-5-ethyl-7,7-dimethyl-5,7-dihydro-3H-imidazo[4,5-f]indol-6-one] | 100 to 2000 nM
9 | CCN1C(=O)C(C)(C)c2cc3nc(-c4n[nH]c5c4CN(C(=O)Cc4ccc(F)cc4)CC5)[nH]c3cc21 [Example 15, 5-Ethyl-2-{5-[2-(4-fluoro-phenyl)-acetyl]-4,5,6,7-tetrahydro-1H-pyrazolo[4,3-c]pyridin-3-yl}-7,7-dimethyl-5,7-dihydro-3H-imidazo[4,5-f]indol-6-one] | 1500 nM
10 | CCCN1C(=O)C(C)(C)c2cc3nc(-c4n[nH]c5c4CCC5)[nH]c3cc21 [Example 4, 7,7-Dimethyl-5-propyl-2-(1,4,5,6-tetrahydro-cyclopentapyrazol-3-yl)-5,7-dihydro-3H-imidazo[4,5-f]indol-6-one] | 224 nM
11 | CC1(C)C(=O)Nc2cc3[nH]c(-c4n[nH]c5c4CCCC5)nc3cc21 [Example 7, 7,7-Dimethyl-2-(4,5,6,7-tetrahydro-1H-indazol-3-yl)-5,7-dihydro-3H-imidazo[4,5-f]indol-6-one] | 100 to 2000 nM
12 | CC1(C)C(=O)N(CCCN2CCOCC2)c2cc3[nH]c(-c4n[nH]c5c4CCC5)nc3cc21 [Example 6, 7,7-Dimethyl-5-(3-morpholin-4-yl-propyl)-2-(1,4,5,6-tetrahydro-cyclopentapyrazol-3-yl)-5,7-dihydro-3H-imidazo[4,5-f]indol-6-one] | 682 nM
13 | CCN1C(=O)C(C)(C)c2cc3nc(-c4n[nH]c5c4CN(C(=O)N4CCOCC4)CC5)[nH]c3cc21 [Example 18, 5-Ethyl-7,7-dimethyl-2-[5-(morpholine-4-carbonyl)-4,5,6,7-tetrahydro-1H-pyrazolo[4,3-c]pyridin-3-yl]-5,7-dihydro-3H-imidazo[4,5-f]indol-6-one] | 100 to 2000 nM
14 | CCN1C(=O)C(C)(C)c2cc3nc(-c4n[nH]c5c4CN(S(=O)(=O)c4ccc(F)cc4)C5)[nH]c3cc21 [Example 25, 5-Ethyl-2-[5-(4-fluoro-benzenesulfonyl)-1,4,5,6-tetrahydro-pyrrolo[3,4-c]pyrazol-3-yl]-7,7-dimethyl-5,7-dihydro-3H-imidazo[4,5-f]indol-6-one] | 100 to 2000 nM
15 | CCN1C(=O)C(C)(C)c2cc3nc(-c4n[nH]c5c4CN(C(=O)Cc4cccs4)C5)[nH]c3cc21 [Example 23, 5-Ethyl-7,7-dimethyl-2-[5-(2-thiophen-2-yl-acetyl)-1,4,5,6-tetrahydro-pyrrolo[3,4-c]pyrazol-3-yl]-5,7-dihydro-3H-imidazo[4,5-f]indol-6-one] | 100 to 2000 nM
16 | CC(C)N1C(=O)C(C)(C)c2cc3nc(-c4n[nH]c5c4CN(C(=O)Cc4cccs4)C5)[nH]c3cc21 [Example 24, 5-Isopropyl-7,7-dimethyl-2-[5-(2-thiophen-2-yl-acetyl)-1,4,5,6-tetrahydro-pyrrolo[3,4-c]pyrazol-3-yl]-5,7-dihydro-3H-imidazo[4,5-f]indol-6-one] | 741 nM

target: T1, Aurora A kinase (Homo sapiens, UniProt O14965); assay: IC50 determination for inhibitors of Aurora A (ELISA-type kinase assay, GST-Histone H3 substrate); format: biochemical; conditions: mutant Aurora A kinase, 30 μM ATP, 40 minutes, read-out: IC50 Aurora A kinase inhibition
T1 sequence (O14965 1-403): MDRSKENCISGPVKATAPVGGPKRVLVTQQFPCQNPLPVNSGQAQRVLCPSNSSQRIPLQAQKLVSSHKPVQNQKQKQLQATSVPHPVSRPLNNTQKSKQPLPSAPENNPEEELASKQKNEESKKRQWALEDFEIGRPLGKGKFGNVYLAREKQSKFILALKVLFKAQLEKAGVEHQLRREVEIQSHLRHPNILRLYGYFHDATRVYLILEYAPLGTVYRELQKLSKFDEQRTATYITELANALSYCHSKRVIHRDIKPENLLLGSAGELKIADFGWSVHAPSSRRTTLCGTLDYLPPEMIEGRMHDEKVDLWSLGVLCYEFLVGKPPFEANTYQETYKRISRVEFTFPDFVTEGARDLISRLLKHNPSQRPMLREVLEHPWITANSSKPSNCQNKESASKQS
Experimental: IC50 Determination for Inhibitors of Aurora A
Aurora A is a serine threonine kinase involved in spindle assembly and chromosome segregation.
The assay is a typically ELISA-type assay where substrate (GST-Histone H3) is coupled to the assay-plate and is phosphorylated by the kinase. Phosphorylation is detected by a mouse anti-Phosphopeptid mAb and an HRP-labeled anti-mouse pAb. The assay is validated for IC50-determination.
Kinase activities were measured by Enzyme-Linked Immunosorbent Assay (ELISA): Maxisorp 384-well plates (Nunc) were coated with recombinant fusion protein comprising residues 1-15 of HistoneH3 fused to the N-terminus of Glutathione-S-Transferase. Plates were then blocked with a solution of 1 mg/mL I-block (a highly purified form of casein, Tropix cat. no. T2015) in phosphate-buffered saline. Kinase reactions were carried out in the wells of the ELISA plate by combining an appropriate amount of mutant Aurora A kinase with test compound and 30 μM ATP. The reaction buffer was 10× Kinase Buffer (Cell Signaling cat. no. 9802) supplemented with 1 μg/mL I-block. Reactions were stopped after 40 minutes by addition of 25 mM EDTA. After washing, substrate phosphorylation was detected by addition of anti-phospho-Histone H3 (Ser 10) 6G3 mAb (Cell Signaling cat. no. 9706) and sheep anti-mouse pAb-HRP (Amersham cat. no. NA931V), followed by colorimetric development with TMB (3,3′,5,5′-tetramethylbenzidine from Kirkegaard & Perry Laboratories). After readout of the adsorbance, IC50 values were calculated using a non-linear curve fit (XLfit software (ID Business Solution Ltd., Guilford, Surrey, UK)).

Row | SMILES | IC50
17 | CC(C)N1C(=O)C(C)(C)c2cc3nc(-c4n[nH]c5c4CCC5)[nH]c3cc21 [Example 5, 5-Isopropyl-7,7-dimethyl-2-(1,4,5,6-tetrahydro-cyclopentapyrazol-3-yl)-5,7-dihydro-3H-imidazo[4,5-f]indol-6-one] | 17 nM
